Test results reported in patent US20110158930A1, “METHOD FOR TREATMENT OF IRRITABLE BOWEL SYNDROME” (ASTELLAS PHARMA INC., priority 2008, published 2011).

How the values were obtained:
[1] = system: 5-HT induced diarrhea in mice; test: 5-HT induced diarrhea in mice; format: in vivo, mouse
Experimental: (§1) Ramosetron hydrochloride, polycarbophil calcium (Astellas Pharma, Inc.) and 5-HT creatinine sulfate (Wako Pure Chemical Industries Ltd.) were used. Ramosetron was dissolved and diluted with distilled water. Polycarbophil was prepared by decalcification of polycarbophil calcium according to a reported method (Yamada et al., Iyakuhin Kenkyu 1997; 28: 23-32), and suspended and diluted with distilled water. In this experiment, ramosetron was used and expressed as its hydrochloride form. All the test substances were orally administered in a dose of 12 mL/kg. In combined administration of ramosetron and polycarbophil, a mixed solution of the two drugs was prepared and this was orally administered.
Each test substance was orally administered to male ICR mice (9-week age, Clea Japan, Inc.), and after 2 hours, 5-HT (3 mg/kg) was intraperitoneally administered (Miyata et al., J. Pharmacol. Exp. Ther. 1992; 261: 297-303). The mice were put individually in separate cages, and the condition of the stool excreted within 3 hours after the 5-HT administration was observed. The occurrence of diarrhea was defined in case where the excreted stool condition was loose stool (wet pasty stool) or watery stool (amorphous muddy stool). […]
All the results were statistically analyzed using Statistical Analysis System ver. […] In this experiment, all the data were expressed as two significant figures. In the investigation using the diarrheal models, the incidence of diarrhea was calculated in each group, then the significance was evaluated according to the Fisher's exact test, and if desired, the significance level was corrected according to the Bonferroni's method for consideration of multiplicity (the case of P<0.05 or P<0.05/3 was given significance). In the experiments of spontaneous defecation, the mean value of total stool weight±SEM was calculated in every group, and the significance was evaluated according to Student's t-test (between two groups) or Dunnett's multiple comparison test (between multiple groups) (the case of P<0.05 was given significance).

[2] = system: restraint stress induced diarrhea in rats; test: Restraint stress induced diarrhea in rats; format: in vivo, rat
Experimental: Ramosetron hydrochloride, polycarbophil calcium (Astellas Pharma, Inc.) and 5-HT creatinine sulfate (Wako Pure Chemical Industries Ltd.) were used. Ramosetron was dissolved and diluted with distilled water. Polycarbophil was prepared by decalcification of polycarbophil calcium according to a reported method (Yamada et al., Iyakuhin Kenkyu 1997; 28: 23-32), and suspended and diluted with distilled water. In this experiment, ramosetron was used and expressed as its hydrochloride form. All the test substances were orally administered in a dose of 12 mL/kg. In combined administration of ramosetron and polycarbophil, a mixed solution of the two drugs was prepared and this was orally administered. Male Wistar rats (13 to 14-week age, Japan SLC Inc.) that had been fasted overnight were stressed by confinement in a restraint stress cage (KN-468, Natsume Seisakusho Co., Ltd.) (Hirata et al., Neurogastroenterol. Motil. 2008; 20: 557-565). The condition of the stool excreted within 3 hours after the initiation of the restraint stress was observed, and the occurrence of diarrhea was defined in case where the excreted stool condition was wet, amorphous and muddy stool. […] All the results were statistically analyzed using Statistical Analysis System ver. […] In this experiment, all the data were expressed as two significant figures. In the investigation using the diarrheal models, the incidence of diarrhea was calculated in each group, then the significance was evaluated according to the Fisher's exact test, and if desired, the significance level was corrected according to the Bonferroni's method for consideration of multiplicity (the case of P<0.05 or P<0.05/3 was given significance). In the experiments of spontaneous defecation, the mean value of total stool weight±SEM was calculated in every group, and the significance was evaluated according to Student's t-test (between two groups) or Dunnett's multiple comparison test (between multiple groups) (the case of P<0.05 was given significance).

[3] = system: spontaneous defecation in mice; test: Spontaneous defecation in mice (total stool weight); format: in vivo, mouse; conditions: ddy mice
Experimental: as §1
In this experiment, male ddy mice (Nippon SLC, 5-week age) were used. Spontaneous defecation was measured individually in separate cages with a wire flooring under free drinking and free feeding condition. […]
The effect of single administration of ramosetron or polycarbophil alone was investigated with the following group composition, and the total stool weight in 2 hours after administration of each test substance was measured (n=10 in every group): Distilled water administration group (control group); ramosetron administration group (10, 30 and 100 μg/kg); polycarbophil administration group (100, 300 and 1,000 mg/kg). […]
All the results were statistically analyzed using Statistical Analysis System ver. […]

Cn1cc(C(=O)[C@@H]2CCc3nc[nH]c3C2)c2ccccc21 [ramosetron, (−)-(R)-5-[(1-methyl-1H-indol-3-yl)carbonyl]-4,5,6,7-tetrahydro-1H-benzimidazole]
incidence of diarrhea ([1]; ramosetron 30 μg/kg p.o. alone, 2 hours before 5-HT 3 mg/kg i.p., stool within 3 hours, ICR mice, n=24): 58%
effect on 5-HT induced diarrhea ([1]; ramosetron 10 to 100 μg/kg p.o. alone, n=12): dose-dependently inhibited
significance of inhibition of 5-HT induced diarrhea vs distilled water ([1]; ramosetron 30 and 100 μg/kg p.o. alone, n=12, Fisher's exact test): significant inhibitory effect
incidence of diarrhea ([2]; ramosetron 0.3 μg/kg p.o. alone, 4 hours before restraint stress, stool within 3 hours, Wistar rats, n=24): 46%
effect on restraint stress induced diarrhea ([2]; ramosetron 0.1 to 1 μg/kg p.o. alone, n=12): dose-dependently inhibited
significance of inhibition of restraint stress induced diarrhea vs distilled water ([2]; ramosetron 0.3 and 1 μg/kg p.o. alone, n=12, Fisher's exact test): significant inhibitory effect
total stool weight in 2 hours vs distilled water group ([3]; ramosetron 100 μg/kg p.o. single administration alone, n=10, Dunnett's test): significant reduction in the total stool weight
effect on spontaneous defecation (total stool weight in 2 hours) ([3]; ramosetron 10 to 100 μg/kg p.o. single administration alone, n=10): dose-dependently inhibited spontaneous defecation
